# In patent US20050228016A1, “TETRAHYDROQUINOLINES FOR MODULATING THE EXPRESSION OF EXOGENOUS GENES VIA AN ECDYSONE RECEPTOR COMPLEX” (priority 2002, published 2005):
# Test system: GAL4 DBD-CfEcR(DEF)/VP16AD-MmRXRE
# Assay: not given
# Details: CHO 13B3 clone, 48 h, average of two wells
# Excerpt: GAL4 DBD-CfEcR(DEF)/VP16AD-MmRXRE: The wild-type D, E, and F domains from spruce budworm Choristoneura fumiferana EcR (“CfEcR-DEF”; SEQ ID NO: 1) were fused to a GAL4 DNA binding domain (“Gal4DBD1-147”; nucleotides 31 to 471 of SEQ ID NO: 2) and placed under the control of the SV40e promoter of pM vector (PT3119-5, Clontech, Palo Alto, Calif.). The D and E domains from Mus Musculus RXR (“MmRXR-DE”; SEQ ID NO: 22) were fused to the transactivation domain from VP16 (“VP16AD”; SEQ ID NO: 5) and placed under the control of the SV40e promoter of the pVP16 vector (PT3127-5, Clontech, Palo Alto, Calif.).
# CHO cells were transiently transfected with transcription cassettes for GAL4 DBD-CfEcR(DEF) and for VP16AD-MmRXRE controlled by SV40e promoters. Stably transfected cells were selected using Hygromycin. Individually isolated CHO cell clones were transiently transfected with a GAL4 RE-luciferase reporter (pFR-Luc, Stratagene, La Jolla, Calif.). The 13B3 clone was selected using Zeocin.
# (§1) Cells were trypsinized and diluted to a concentration of 2.5×10^4 cells mL. 100 μL of cell suspension was placed in each well of a 96 well plate and incubated at 37° C. under 5% CO2 for 24 h. Ligand stock solutions were prepared in DMSO and diluted 300 fold for all treatments.
# (§2) Luciferase reporter gene expression was measured 48 h after cell treatment using Bright-Glo™ Luciferase Assay System from Promega (E2650). Luminescence was detected at room temperature using a Dynex MLX microtiter plate luminometer.
# (§3) Each assay was conducted in two separate wells, and the two values were averaged. Fold inductions were calculated by dividing relative light units (“RLU”) in ligand treated cells with RLU in DMSO treated cells.
row,Compound,"Fold Induction Average, 13B3V1 Assay 33 μM [fold]"
1,CC1CC(Nc2ccccc2)c2ccccc2N1C(=O)COc1ccc(Cl)cc1 (stereo not shown) [Compound I-180],1

# Target: T1, Bombyx mori EcR (VP16-BmEcR, CVBE) (Bombyx mori, UniProt P49881)
# T1 construct: expressed in transfected cells
# T1 sequence (P49881 86-606): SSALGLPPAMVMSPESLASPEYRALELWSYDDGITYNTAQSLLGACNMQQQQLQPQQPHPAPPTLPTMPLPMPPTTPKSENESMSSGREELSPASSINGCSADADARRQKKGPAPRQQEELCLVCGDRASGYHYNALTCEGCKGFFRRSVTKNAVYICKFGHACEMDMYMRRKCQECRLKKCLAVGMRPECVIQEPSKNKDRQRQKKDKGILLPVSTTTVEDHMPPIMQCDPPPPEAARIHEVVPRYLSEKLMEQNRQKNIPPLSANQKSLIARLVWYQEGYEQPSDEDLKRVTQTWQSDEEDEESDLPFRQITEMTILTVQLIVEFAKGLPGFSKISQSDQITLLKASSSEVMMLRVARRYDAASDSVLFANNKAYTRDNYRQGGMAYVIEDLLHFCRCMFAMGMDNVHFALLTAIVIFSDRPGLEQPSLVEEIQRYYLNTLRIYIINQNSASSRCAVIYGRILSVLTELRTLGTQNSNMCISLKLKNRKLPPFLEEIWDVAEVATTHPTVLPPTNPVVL
# Assay: Z3 assay (HEK-293 clone Z3 with CVBE and 6x EcRE LacZ, β-galactosidase reporter)
# Type: cell-based
# Details: 48 h, average of two wells
row,Compound,"Fold Induction Average, Z3V1 Assay 33 μM [fold]"
1,C[C@H]1C[C@H](Nc2ccc(F)cc2)c2cc(F)ccc2N1C(=O)c1ccc(F)cc1 (relative stereo) [Compound I-9],16
2,C[C@H]1C[C@H](Nc2ccc(F)cc2)c2cc(F)ccc2N1C(=O)c1ccccc1 (relative stereo) [Compound I-11],32
3,COc1cccc(C(=O)N2c3ccc(C)cc3[C@@H](Nc3ccc(C)cc3)C[C@@H]2C)c1 (relative stereo) [Compound I-86],1
4,COC(=O)c1ccc(C(=O)N2c3ccc(F)cc3C(Nc3ccc(F)cc3)CC2C)cc1 (stereo not shown) [Compound I-94],48
5,CC1CC(Nc2ccccc2)c2ccccc2N1C(=O)c1ccno1 (stereo not shown) [Compound I-104],1
6,CC1CC(Nc2ccccc2)c2ccccc2N1C(=O)COc1ccc(Cl)cc1 (stereo not shown) [Compound I-180],1

# Target: T2, DmEcR + LmUSP (Drosophila melanogaster, UniProt P34021)
# T2 sequence (P34021 342-878): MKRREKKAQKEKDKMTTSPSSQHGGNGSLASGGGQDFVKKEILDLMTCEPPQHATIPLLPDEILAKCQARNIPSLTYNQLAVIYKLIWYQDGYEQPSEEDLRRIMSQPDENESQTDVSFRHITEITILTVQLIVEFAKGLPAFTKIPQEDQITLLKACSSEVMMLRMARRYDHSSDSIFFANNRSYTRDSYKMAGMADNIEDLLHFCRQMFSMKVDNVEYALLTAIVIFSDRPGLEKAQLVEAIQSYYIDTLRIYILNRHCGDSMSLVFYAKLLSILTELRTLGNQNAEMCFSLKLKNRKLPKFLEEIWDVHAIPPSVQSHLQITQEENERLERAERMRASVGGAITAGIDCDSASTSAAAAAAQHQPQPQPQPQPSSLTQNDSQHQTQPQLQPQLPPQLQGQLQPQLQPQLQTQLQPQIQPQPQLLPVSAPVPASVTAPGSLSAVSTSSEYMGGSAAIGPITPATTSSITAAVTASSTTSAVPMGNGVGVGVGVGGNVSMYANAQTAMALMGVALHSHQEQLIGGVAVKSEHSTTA
# Assay: not given
# Details: 10 μM; DmEcR + LmUSP in 3T3 cells; reporter assayed 48 h after ligand
row,Compound,Fold Induction (10 μM) [fold]
1,C[C@H]1C[C@@H](Nc2ccc(F)cc2)c2cc(F)ccc2N1C(=O)c1ccc(F)cc1 (relative stereo) [Compound I-8],2
2,C[C@H]1C[C@H](Nc2ccc(F)cc2)c2cc(F)ccc2N1C(=O)c1ccc(F)cc1 (relative stereo) [Compound I-9],9
3,C[C@H]1C[C@@H](Nc2ccc(F)cc2)c2cc(F)ccc2N1C(=O)c1ccccc1 (relative stereo) [Compound I-10],1
4,C[C@H]1C[C@H](Nc2ccc(F)cc2)c2cc(F)ccc2N1C(=O)c1ccccc1 (relative stereo) [Compound I-11],5

# Same assay, conditions: 100 μM; DmEcR + LmUSP in 3T3 cells; reporter assayed 48 h after ligand
row,Compound,Fold Induction (100 μM) [fold]
1,C[C@H]1C[C@@H](Nc2ccc(F)cc2)c2cc(F)ccc2N1C(=O)c1ccc(F)cc1 (relative stereo) [Compound I-8],7
2,C[C@H]1C[C@H](Nc2ccc(F)cc2)c2cc(F)ccc2N1C(=O)c1ccc(F)cc1 (relative stereo) [Compound I-9],2
3,C[C@H]1C[C@@H](Nc2ccc(F)cc2)c2cc(F)ccc2N1C(=O)c1ccccc1 (relative stereo) [Compound I-10],1
4,C[C@H]1C[C@H](Nc2ccc(F)cc2)c2cc(F)ccc2N1C(=O)c1ccccc1 (relative stereo) [Compound I-11],3

# Test system: CfEcR + LmUSP
# Assay: not given
# Details: CfEcR + LmUSP in 3T3 cells, reporter assayed 48 h after ligand
row,Compound,Fold Induction (10 μM) [fold]
1,C[C@H]1C[C@@H](Nc2ccc(F)cc2)c2cc(F)ccc2N1C(=O)c1ccc(F)cc1 (relative stereo) [Compound I-8],3
2,C[C@H]1C[C@H](Nc2ccc(F)cc2)c2cc(F)ccc2N1C(=O)c1ccc(F)cc1 (relative stereo) [Compound I-9],3
3,C[C@H]1C[C@@H](Nc2ccc(F)cc2)c2cc(F)ccc2N1C(=O)c1ccccc1 (relative stereo) [Compound I-10],1
4,C[C@H]1C[C@H](Nc2ccc(F)cc2)c2cc(F)ccc2N1C(=O)c1ccccc1 (relative stereo) [Compound I-11],1

# Target: T3, Gal4DBD/AaEcR (DEF) (Aedes aegypti, UniProt P49880)
# T3 construct: The wildtype D, E, and F domains from mosquito Aedes aegypti EcR; expressed in transfected cells; host or cells: 3T3 cells
# Assay: cell-based
# Type: cell-based
# Details: 33 μM; 3T3 cells; 48 h; average of two wells
# Outline: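 Mouse 3T3 cells transiently co-transfected with Gal4DBD/AaEcR (DEF) and pFRLuc (5× GAL4 response element, firefly luciferase reporter). Ligand added in serum medium 4 h after transfection; single-dose testing at 33 μM.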
# T3 sequence (P28704 286-520 A311G/G315S/G445S/I449V): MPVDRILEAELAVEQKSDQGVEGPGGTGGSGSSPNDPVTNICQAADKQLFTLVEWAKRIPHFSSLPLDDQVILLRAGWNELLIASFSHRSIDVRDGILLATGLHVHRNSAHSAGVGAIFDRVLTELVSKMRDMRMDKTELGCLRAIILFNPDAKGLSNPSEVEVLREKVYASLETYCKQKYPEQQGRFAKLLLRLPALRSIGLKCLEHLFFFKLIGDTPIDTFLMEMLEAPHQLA
# T3 sequence (P49880 405-776): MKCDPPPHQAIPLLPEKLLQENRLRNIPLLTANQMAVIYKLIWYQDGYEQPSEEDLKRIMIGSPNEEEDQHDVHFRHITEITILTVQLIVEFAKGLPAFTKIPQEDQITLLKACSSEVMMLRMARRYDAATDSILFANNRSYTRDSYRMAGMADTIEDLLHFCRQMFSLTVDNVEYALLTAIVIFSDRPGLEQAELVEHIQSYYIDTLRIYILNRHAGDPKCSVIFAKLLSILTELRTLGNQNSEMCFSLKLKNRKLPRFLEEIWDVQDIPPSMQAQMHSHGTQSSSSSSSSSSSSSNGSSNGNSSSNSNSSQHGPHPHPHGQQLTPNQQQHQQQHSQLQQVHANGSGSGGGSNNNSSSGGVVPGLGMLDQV
row,Compound,"Fold Induction Average, AA_3T3V1 Assay 33 μM [fold]"
1,C[C@H]1C[C@@H](Nc2ccc(F)cc2)c2cc(F)ccc2N1C(=O)c1ccc(F)cc1 (relative stereo) [Compound I-8],153
2,C[C@H]1C[C@H](Nc2ccc(F)cc2)c2cc(F)ccc2N1C(=O)c1ccc(F)cc1 (relative stereo) [Compound I-9],131
3,C[C@H]1C[C@@H](Nc2ccc(F)cc2)c2cc(F)ccc2N1C(=O)c1ccccc1 (relative stereo) [Compound I-10],164
4,C[C@H]1C[C@H](Nc2ccc(F)cc2)c2cc(F)ccc2N1C(=O)c1ccccc1 (relative stereo) [Compound I-11],387
5,COc1cccc(C(=O)N2c3ccc(C)cc3[C@@H](Nc3ccc(C)cc3)C[C@@H]2C)c1 (relative stereo) [Compound I-86],2
6,COC(=O)c1ccc(C(=O)N2c3ccc(F)cc3C(Nc3ccc(F)cc3)CC2C)cc1 (stereo not shown) [Compound I-94],798
7,CC1CC(Nc2ccccc2)c2ccccc2N1C(=O)c1ccno1 (stereo not shown) [Compound I-104],347
8,CC1CC(Nc2ccccc2)c2ccccc2N1C(=O)COc1ccc(Cl)cc1 (stereo not shown) [Compound I-180],9
9,Cc1ccccc1NC1CC(C)N(C(=O)c2ccccc2)c2c(C)cccc21 (stereo not shown) [Compound I-184],1
10,CCNC(=O)N1c2ccccc2C(Nc2ccccc2)CC1C (stereo not shown) [Compound I-210],12

# Test system: GAL4 DBD (1-147)-CfEcR(DEF)/VP16AD-βRXREF-LmUSPEF
# Assay: not given
# Details: CHO 27-63 clone, 48 h, average of two wells
# Excerpt: GAL4 DBD (1-147)-CfEcR(DEF)/VP16AD-βRXREF-LmUSPEF: The wild-type D, E, and F domains from spruce budworm Choristoneura fumiferana EcR (“CfEcR-DEF”; SEQ ID NO: 1) were fused to a GAL4 DNA binding domain (“Gal4DBD1-147”; nucleotides 31 to 471 of SEQ ID NO: 2) and placed under the control of a phosphoglycerate kinase promoter (“PGK”; SEQ ID NO: 19). Helices 1 through 8 of the EF domains from Homo sapiens RXRβ and helices 9 through 12 of the EF domains of Locusta migratoria Ultraspiracle Protein (“HsRXRβ-EF-LmUSP-EF”; SEQ ID NO: 4) were fused to the transactivation domain from VP16 (“VP16AD”; SEQ ID NO: 5) and placed under the control of an elongation factor-1α promoter (“EF-1α”; SEQ ID NO: 20). Five consensus GAL4 response element binding sites (“5× GAL4RE”; comprising 5 copies of a GAL4RE comprising SEQ ID NO: 7) were fused to a synthetic TATA minimal promoter (SEQ ID NO: 21) and placed upstream of the luciferase reporter gene (SEQ ID NO: 9).
# CHO cells were transiently transfected with transcription cassettes for GAL4 DBD (1-147) CfEcR(DEF) and for VP16AD βRXREF-LmUSPEF controlled by ubiquitously active cellular promoters (PGK and EF-1α, respectively) on a single plasmid. Stably transfected cells were selected by Zeocin resistance. Individually isolated CHO cell clones were transiently transfected with a GAL4 RE-luciferase reporter (pFR Luc). 27-63 clone was selected using Hygromycin.
# as §1, with “treatments. Dose response testing consisted of 8 concentrations ranging from 33 μM to 0.01 μM.” for “treatments.”
# as §2, §3
row,Compound,"Fold Induction Average, 27-63V1 Assay 33 μM [fold]"
1,COc1cccc(C(=O)N2c3ccc(C)cc3[C@@H](Nc3ccc(C)cc3)C[C@@H]2C)c1 (relative stereo) [Compound I-86],1
2,COC(=O)c1ccc(C(=O)N2c3ccc(F)cc3C(Nc3ccc(F)cc3)CC2C)cc1 (stereo not shown) [Compound I-94],32
3,CC1CC(Nc2ccccc2)c2ccccc2N1C(=O)c1ccno1 (stereo not shown) [Compound I-104],1
4,Cc1ccccc1NC1CC(C)N(C(=O)c2ccccc2)c2c(C)cccc21 (stereo not shown) [Compound I-184],1
5,CCNC(=O)N1c2ccccc2C(Nc2ccccc2)CC1C (stereo not shown) [Compound I-210],1
